Literature values, collected in paper PMC5358987 (Drug Design, Development and Therapy, 2017).

O=C(O)[C@@H]1CSC(c2ccc(O)cc2O)N1 (mixture of isomers) [MHY384, (2RS,4R)-2-(2,4-dihydroxyphenyl)thiazolidine-4-carboxylic acid]
Tyrosinase inhibition (tyrosinase): potent competitive tyrosinase inhibitors
Reduction of melanogenesis (HRM2 hairless mice): effectively reduce melanogenesis
